Values of other authors in patent US20080293820A1, “METHODS FOR IMPROVING PHYSICAL FUNCTION IN FIBROMYALGIA” (Cypress Bioscience, Inc., priority 2007, published 2008).
Where a name gives a salt, the structure may show the parent alone.

Test system: fibromyalgia patients
Conditions: cited from earlier work
[1] = both milnacipran treatment groups (QD and BID), escalation to maximum 200 mg/day

SMILES: CCN(CC)C(=O)C1(c2ccccc2)CC1CN (racemic) [milnacipran, Z-2-aminomethyl-1-phenyl-N,N-diethylcyclopropanecarboxamide hydrochloride]
- effect on the symptom of pain in FMS (in words) (100 mg BID): effective acute (short-term) therapy
- PGIC: completers who reported an improvement in their overall status [1]: over 70%
- PGIC: completers who reported worsening [1]: 10%
